Laboratory results taken from patent publication US7851474B2, “Dipiperazinyl ketones and related analogues” (Neurogen Corporation, priority 2005, dated 2010).

Target: T1, chimeric human H3 receptor (Homo sapiens, UniProt Q9Y5N1, E19D)
T1 construct: made in house; host or cells: Sf9 insect cells (baculovirus infection); P2 membrane preparation
Assay: Chimeric human H3 receptor GTP binding assay (agonist-stimulated GTP-gamma35S binding, Example 7)
Format: biochemical
Settings: Table II; assay of Example 7; "*" in Ki; read-out: Ki
In short: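 Sf9 membranes co-expressing the chimeric receptor and heterotrimeric G-protein subunits, 35 μg protein per tube, in pH 7.4 Tris buffer with 10 μM GDP. Test compounds at 10^−10 to 10^−6 M with 1 μM histamine, 60 min at room temperature. Filter-bound GTP-gamma^35S read by scintillation; IC50 from non-linear regression of dose-response curves.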

T1 sequence (Q9Y5N1 with tags, fused parts or gaps E19D): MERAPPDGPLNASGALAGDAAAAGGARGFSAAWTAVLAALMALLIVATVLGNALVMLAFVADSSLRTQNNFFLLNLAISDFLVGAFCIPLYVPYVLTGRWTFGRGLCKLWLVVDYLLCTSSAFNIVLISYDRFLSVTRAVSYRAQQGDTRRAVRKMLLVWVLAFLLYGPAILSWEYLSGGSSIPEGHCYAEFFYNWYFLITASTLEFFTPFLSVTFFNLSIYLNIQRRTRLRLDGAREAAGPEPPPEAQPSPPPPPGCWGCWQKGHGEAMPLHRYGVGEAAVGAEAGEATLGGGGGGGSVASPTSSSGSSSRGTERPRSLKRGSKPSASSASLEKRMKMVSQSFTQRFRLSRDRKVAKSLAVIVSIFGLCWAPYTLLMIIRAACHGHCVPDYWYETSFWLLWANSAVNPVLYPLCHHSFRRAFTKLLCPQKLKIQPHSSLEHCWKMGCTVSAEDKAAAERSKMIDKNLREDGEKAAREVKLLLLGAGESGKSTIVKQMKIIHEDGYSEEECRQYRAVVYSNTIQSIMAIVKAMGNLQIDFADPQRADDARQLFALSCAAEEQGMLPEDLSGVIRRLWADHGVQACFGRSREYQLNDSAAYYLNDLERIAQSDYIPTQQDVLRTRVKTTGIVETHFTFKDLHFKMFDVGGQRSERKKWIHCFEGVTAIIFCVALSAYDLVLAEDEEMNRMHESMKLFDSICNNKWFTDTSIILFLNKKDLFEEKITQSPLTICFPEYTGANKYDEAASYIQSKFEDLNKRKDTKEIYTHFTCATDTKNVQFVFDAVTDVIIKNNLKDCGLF

Ki, < 1000 nM:
Cc1cc(-c2ccc(N3CCN(CC(=O)N4CCN(C5CCC5)CC4)CC3)nn2)ccc1F [Compound 1010, 3-{4-[2-(4-cyclobutylpiperazin-1-yl)-2-oxoethyl]piperazin-1-yl}-6-(4-fluoro-3-methylphenyl)pyridazine]
Cc1cccc(-c2ccc(N3CCN(CC(=O)N4CCN(C5CCC5)CC4)CC3)nn2)c1 [Compound 1011, 3-{4-[2-(4-cyclobutylpiperazin-1-yl)-2-oxoethyl]piperazin-1-yl}-6-(3-methylphenyl)pyridazine]
Cc1ccc(-c2ccc(N3CCN(CC(=O)N4CCN(C5CCC5)CC4)CC3)nn2)cc1 [Compound 1012, 3-{4-[2-(4-cyclobutylpiperazin-1-yl)-2-oxoethyl]piperazin-1-yl}-6-(4-methylphenyl)pyridazine]
CC(C)c1cccc(-c2ccc(N3CCN(CC(=O)N4CCN(C5CCC5)CC4)CC3)nn2)c1 [Compound 1013, 3-{4-[2-(4-cyclobutylpiperazin-1-yl)-2-oxoethyl]piperazin-1-yl}-6-(3-isopropylphenyl) pyridazine]
CC(C)c1ccc(-c2ccc(N3CCN(CC(=O)N4CCN(C5CCC5)CC4)CC3)nn2)cc1 [Compound 1014, 3-{4-[2-(4-cyclobutylpiperazin-1-yl)-2-oxoethyl]piperazin-1-yl}-6-(4-isopropylphenyl) pyridazine]
Cc1ccc(-c2ccc(N3CCN(CC(=O)N4CCN(C5CCC5)CC4)CC3)nn2)cc1C [Compound 1015, 3-{4-[2-(4-cyclobutylpiperazin-1-yl)-2-oxoethyl]piperazin-1-yl}-6-(3,4-dimethylphenyl) pyridazine]
Cc1cc(C)cc(-c2ccc(N3CCN(CC(=O)N4CCN(C5CCC5)CC4)CC3)nn2)c1 [Compound 1016, 3-{4-[2-(4-cyclobutylpiperazin-1-yl)-2-oxoethyl]piperazin-1-yl}-6-(3,5-dimethylphenyl) pyridazine]
CCc1ccc(-c2ccc(N3CCN(CC(=O)N4CCN(C5CCC5)CC4)CC3)nn2)cc1 [Compound 1017, 3-{4-[2-(4-cyclobutylpiperazin-1-yl)-2-oxoethyl]piperazin-1-yl}-6-(4-ethylphenyl)pyridazine]
CCCc1ccc(-c2ccc(N3CCN(CC(=O)N4CCN(C5CCC5)CC4)CC3)nn2)cc1 [Compound 1018, 3-{4-[2-(4-cyclobutylpiperazin-1-yl)-2-oxoethyl]piperazin-1-yl}-6-(4-propylphenyl)pyridazine]
CCc1cccc(-c2ccc(N3CCN(CC(=O)N4CCN(C5CCC5)CC4)CC3)nn2)c1 [Compound 1019, 3-{4-[2-(4-cyclobutylpiperazin-1-yl)-2-oxoethyl]piperazin-1-yl}-6-(3-ethylphenyl)pyridazine]
COc1cccc(-c2ccc(N3CCN(CC(=O)N4CCN(C5CCC5)CC4)CC3)nn2)c1 [Compound 1020, 3-{4-[2-(4-cyclobutylpiperazin-1-yl)-2-oxoethyl]piperazin-1-yl}-6-(3-methoxyphenyl) pyridazine]
O=C(CN1CCN(c2ccc(-c3ccc(OC(F)(F)F)cc3)nn2)CC1)N1CCN(C2CCC2)CC1 [Compound 1021, 3-{4-[2-(4-cyclobutylpiperazin-1-yl)-2-oxoethyl]piperazin-1-yl}-6-[4-(trifluoromethoxy)phenyl] pyridazine]
CCOc1cccc(-c2ccc(N3CCN(CC(=O)N4CCN(C5CCC5)CC4)CC3)nn2)c1 [Compound 1022, 3-{4-[2-(4-cyclobutylpiperazin-1-yl)-2-oxoethyl]piperazin-1-yl}-6-(3-ethoxyphenyl)pyridazine]
O=C(CN1CCN(c2ccc(-c3cccc(OC(F)(F)F)c3)nn2)CC1)N1CCN(C2CCC2)CC1 [Compound 1024, 3-{4-[2-(4-cyclobutylpiperazin-1-yl)-2-oxoethyl]piperazin-1-yl}-6-[3-(trifluoromethoxy)phenyl} pyridazine]
CSc1cccc(-c2ccc(N3CCN(CC(=O)N4CCN(C5CCC5)CC4)CC3)nn2)c1 [Compound 1025, 3-{4-[2-(4-cyclobutylpiperazin-1-yl)-2-oxoethyl]piperazin-1-yl}-6-[3-(methylthio)phenyl] pyridazine]
COc1ccc(-c2ccc(-c3ccc(N4CCN(CC(=O)N5CCN(C6CCC6)CC5)CC4)nn3)cc2)cc1 [Compound 1026, 3-{4-[2-(4-cyclobutylpiperazin-1-yl)-2-oxoethyl]piperazin-1-yl}-6-(4′-methoxybiphenyl-4-yl)pyridazine]
COc1ccc(-c2ccc(N3CCN(CC(=O)N4CCN(C5CCC5)CC4)CC3)nn2)cc1F [Compound 1027, 3-{4-[2-(4-cyclobutylpiperazin-1-yl)-2-oxoethyl]piperazin-1-yl}-6-(3-fluoro-4-methoxyphenyl) pyridazine]
COc1cc(F)c(-c2ccc(N3CCN(CC(=O)N4CCN(C5CCC5)CC4)CC3)nn2)cc1F [Compound 1028, 3-{4-[2-(4-cyclobutylpiperazin-1-yl)-2-oxoethyl]piperazin-1-yl}-6-(2,5-difluoro-4-methoxyphenyl) pyridazine]
COc1ccc2cc(-c3ccc(N4CCN(CC(=O)N5CCN(C6CCC6)CC5)CC4)nn3)ccc2c1 [Compound 1029, 3-{4-[2-(4-cyclobutylpiperazin-1-yl)-2-oxoethyl]piperazin-1-yl}-6-(6-methoxy-2-naphthyl)pyridazine]
CC(C)Oc1cccc(-c2ccc(N3CCN(CC(=O)N4CCN(C5CCC5)CC4)CC3)nn2)c1 [Compound 1030, 3-{4-[2-(4-cyclobutylpiperazin-1-yl)-2-oxoethyl]piperazin-1-yl}-6-(3-isopropoxyphenyl) pyridazine]
COc1cc(-c2ccc(N3CCN(CC(=O)N4CCN(C5CCC5)CC4)CC3)nn2)cc(OC)c1OC [Compound 1031, 3-{4-[2-(4-cyclobutylpiperazin-1-yl)-2-oxoethyl]paperazin-1-yl}-6-(3,4,5-trimethoxyphenyl) pyridazine]
COc1ccc(-c2ccc(N3CCN(CC(=O)N4CCN(C5CCC5)CC4)CC3)nn2)cc1 [Compound 1032, 3-{4-[2-(4-cyclobutylpiperazin-1-yl)-2-oxoethyl]piperazin-1-yl}-6-(4-methoxyphenyl) pyridazine]
COc1ccc(-c2ccc(N3CCN(CC(=O)N4CCN(C5CCC5)CC4)CC3)nn2)cc1OC [Compound 1033, 3-{4-[2-(4-cyclobutylpiperazin-1-yl)-2-oxoethyl]piperazin-1-yl}-6-(3,4-dimethoxyphenyl) pyridazine]
CCOc1ccc(-c2ccc(N3CCN(CC(=O)N4CCN(C5CCC5)CC4)CC3)nn2)cc1 [Compound 1034, 3-{4-[2-(4-cyclobutylpiperazin-1-yl)-2-oxoethyl]piperazin-1-yl}-6-(4-ethoxyphenyl)pyridazine]
O=C(CN1CCN(c2ccc(-c3ccc4c(c3)OCCO4)nn2)CC1)N1CCN(C2CCC2)CC1 [Compound 1035, 3-{4-[2-(4-cyclobutylpiperazin-1-yl)-2-oxoethyl]piperazin-1-yl}-6-(2,3-dihydro-1,4-benzodioxin-6-yl)pyridazine]
COc1ccc(-c2ccc(N3CCN(CC(=O)N4CCN(C5CCC5)CC4)CC3)nn2)cc1C [Compound 1036, 3-{4-[2-(4-cyclobutylpiperazin-1-yl)-2-oxoethyl]piperazin-1-yl}-6-(4-methoxy-3-methylphenyl)pyridazine]
CCCOc1ccc(-c2ccc(N3CCN(CC(=O)N4CCN(C5CCC5)CC4)CC3)nn2)cc1 [Compound 1037, 3-{4-[2-(4-cyclobutylpiperazin-1-yl)-2-oxoethyl]piperazin-1-yl}-6-(4-propoxyphenyl) pyridazine]
COc1ccc(-c2ccc(N3CCN(CC(=O)N4CCN(C5CCC5)CC4)CC3)nn2)c(C)c1 [Compound 1038, 3-{4-[2-(4-cyclobutylpiperazin-1-yl)-2-oxoethyl]piperazin-1-yl}-6-(4-methoxy-2-methylphenyl)pyridazine]
COc1ccccc1-c1ccc(N2CCN(CC(=O)N3CCN(C4CCC4)CC3)CC2)nn1 [Compound 1039, 3-{4-[2-(4-cyclobutylpiperazin-1-yl)-2-oxoethyl]piperazin-1-yl}-6-(2-methoxyphenyl) pyridazine]
COc1ccc(C(C)C)cc1-c1ccc(N2CCN(CC(=O)N3CCN(C4CCC4)CC3)CC2)nn1 [Compound 1040, 3-{4-[2-(4-cyclobutylpiperazin-1-yl)-2-oxoethyl]piperazin-1-yl}-6-(5-isopropyl-2-methoxyphenyl) pyridazine]
COc1ccc(OC)c(-c2ccc(N3CCN(CC(=O)N4CCN(C5CCC5)CC4)CC3)nn2)c1 [Compound 1041, 3-{4-[2-(4-cyclobutylpiperazin-1-yl)-2-oxoethyl]piperazin-1-yl}-6-(2,5-dimethoxyphenyl) pyridazine]
COc1ccc(-c2ccc(N3CCN(CC(=O)N4CCN(C5CCC5)CC4)CC3)nn2)c(OC)c1 [Compound 1042, 3-{4-[2-(4-cyclobutylpiperazin-1-yl)-2-oxoethyl]piperazin-1-yl}-6-(2,4-dimethoxyphenyl) pyridazine]
CCOc1ccccc1-c1ccc(N2CCN(CC(=O)N3CCN(C4CCC4)CC3)CC2)nn1 [Compound 1043, 3-{4-[2-(4-cyclobutylpiperazin-1-yl)-2-oxoethyl]piperazin-1-yl}-6-(2-ethoxyphenyl)pyridazine]
